Results taken from PubChem BioAssay (NCI).
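Step 1: Grow cells in 96-well plates. Step 2: Expose to compound for 48 hours at 5 concentrations. Step 3: Interpolate endpoints linearly; if unreached, use highest concentration. GI50 is the concentration that inhibits growth by half. The concentration for full growth arrest is given as TGI.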

Columns and labels:
Experiment in all cases: DTP human tumour cell line panel, 48 h
786-0 renal = system: 786-0 renal
A498 renal = system: A498 renal
A549 NSCLC = system: A549 NSCLC
ACHN renal = system: ACHN renal
CAKI-1 renal = system: CAKI-1 renal
CCRF-CEM leukemia = system: CCRF-CEM leukemia
COLO 205 colon = system: COLO 205 colon
DU-145 prostate = system: DU-145 prostate
EKVX NSCLC = system: EKVX NSCLC
HCC-2998 colon = system: HCC-2998 colon
HCT-116 colon = system: HCT-116 colon
HCT-15 colon = system: HCT-15 colon
HL-60(TB) leukemia = system: HL-60(TB) leukemia
HOP-62 NSCLC = system: HOP-62 NSCLC
HOP-92 NSCLC = system: HOP-92 NSCLC
HS 578T breast = system: HS 578T breast
HT29 colon = system: HT29 colon
IGROV1 ovarian = system: IGROV1 ovarian
K-562 leukemia = system: K-562 leukemia
KM12 colon = system: KM12 colon
LOX IMVI melanoma = system: LOX IMVI melanoma
M14 melanoma = system: M14 melanoma
MALME-3M melanoma = system: MALME-3M melanoma
MCF7 breast = system: MCF7 breast
MDA-MB-231 breast = system: MDA-MB-231 breast
MDA-MB-435 = system: MDA-MB-435
MDA-N = system: MDA-N
MOLT-4 leukemia = system: MOLT-4 leukemia
NCI-H226 lung = system: NCI-H226 lung
NCI-H23 lung = system: NCI-H23 lung
NCI-H460 lung = system: NCI-H460 lung
NCI-H522 lung = system: NCI-H522 lung
NCI/ADR-RES ovarian = system: NCI/ADR-RES ovarian
OVCAR-3 ovarian = system: OVCAR-3 ovarian
OVCAR-4 ovarian = system: OVCAR-4 ovarian
OVCAR-5 ovarian = system: OVCAR-5 ovarian
OVCAR-8 ovarian = system: OVCAR-8 ovarian
PC-3 prostate = system: PC-3 prostate
RPMI-8226 leukemia = system: RPMI-8226 leukemia
RXF 393 renal = system: RXF 393 renal
SF-268 CNS = system: SF-268 CNS
SF-295 CNS = system: SF-295 CNS
SF-539 CNS = system: SF-539 CNS
SK-MEL-2 melanoma = system: SK-MEL-2 melanoma
SK-MEL-28 melanoma = system: SK-MEL-28 melanoma
SK-MEL-5 melanoma = system: SK-MEL-5 melanoma
SK-OV-3 ovarian = system: SK-OV-3 ovarian
SN12C renal = system: SN12C renal
SNB-19 CNS = system: SNB-19 CNS
SNB-75 CNS = system: SNB-75 CNS
SR leukemia = system: SR leukemia
SW-620 colon = system: SW-620 colon
T-47D breast = system: T-47D breast
TK-10 renal = system: TK-10 renal
U251 CNS = system: U251 CNS
UACC-257 melanoma = system: UACC-257 melanoma
UACC-62 melanoma = system: UACC-62 melanoma
UO-31 renal = system: UO-31 renal
BT-549 breast = system: BT-549 breast

CCN(CC)C(=S)N/N=C(/C)c1cccc(/C(C)=N\NC(=S)N(CC)CC)n1
TGI (786-0 renal): 11.5 µM
TGI (A498 renal): 4.16 µM
TGI (A549 NSCLC): 11.3 µM
TGI (ACHN renal): 4.61 µM
TGI (CAKI-1 renal): 5.29 µM
TGI (CCRF-CEM leukemia): > 100 µM
TGI (COLO 205 colon): 11.3 µM
TGI (DU-145 prostate): 4.83 µM
TGI (EKVX NSCLC): 12.5 µM
TGI (HCC-2998 colon): 23.8 µM
TGI (HCT-116 colon): 11.4 µM
TGI (HCT-15 colon): 17.1 µM
TGI (HL-60(TB) leukemia): 3.77 µM
TGI (HOP-62 NSCLC): 6.76 µM
TGI (HOP-92 NSCLC): 7.74 µM
TGI (HS 578T breast): > 100 µM
TGI (HT29 colon): 13.2 µM
TGI (IGROV1 ovarian): 8.08 µM
TGI (K-562 leukemia): 11.6 µM
TGI (KM12 colon): 4.1 µM
TGI (LOX IMVI melanoma): 7.36 µM
TGI (M14 melanoma): 3.63 µM
TGI (MALME-3M melanoma): 7.41 µM
TGI (MCF7 breast): 5.3 µM
TGI (MDA-MB-231 breast): 7.64 µM
TGI (MDA-MB-435): 14.9 µM
TGI (MDA-N): 21.4 µM
TGI (MOLT-4 leukemia): 5.77 µM
TGI (NCI-H226 lung): 4.77 µM
TGI (NCI-H23 lung): 19.2 µM
TGI (NCI-H460 lung): 6.36 µM
TGI (NCI-H522 lung): 16 µM
TGI (NCI/ADR-RES ovarian): 10.5 µM
TGI (OVCAR-3 ovarian): 7.44 µM
TGI (OVCAR-4 ovarian): 7.32 µM
TGI (OVCAR-5 ovarian): 20.8 µM
TGI (OVCAR-8 ovarian): 3.19 µM
TGI (PC-3 prostate): 17 µM
TGI (RPMI-8226 leukemia): 6.17 µM
TGI (RXF 393 renal): 7.03 µM
TGI (SF-268 CNS): 7.47 µM
TGI (SF-295 CNS): 6.7 µM
TGI (SF-539 CNS): 3.28 µM
TGI (SK-MEL-2 melanoma): 20.3 µM
TGI (SK-MEL-28 melanoma): 3.88 µM
TGI (SK-MEL-5 melanoma): 8.2 µM
TGI (SK-OV-3 ovarian): 5.43 µM
TGI (SN12C renal): 12.4 µM
TGI (SNB-19 CNS): 18.4 µM
TGI (SNB-75 CNS): 10.2 µM
TGI (SR leukemia): 2.4 µM
TGI (SW-620 colon): 15.2 µM
TGI (T-47D breast): 16.9 µM
TGI (TK-10 renal): 11.7 µM
TGI (U251 CNS): 8.74 µM
TGI (UACC-257 melanoma): 11 µM
TGI (UACC-62 melanoma): 8.15 µM
TGI (UO-31 renal): 7.94 µM

C=C1C(=O)O[C@H]2[C@H]1CC/C(COC(=O)C(=O)c1cn(Cc3ccccc3)c3ccccc13)=C\CC[C@@]1(C)O[C@@H]21
GI50 (786-0 renal): 1.93 µM
TGI (786-0 renal): 4.03 µM
GI50 (A498 renal): 18.5 µM
TGI (A498 renal): 35.2 µM
GI50 (A549 NSCLC): 2.13 µM
TGI (A549 NSCLC): 6.35 µM
GI50 (BT-549 breast): 1.8 µM
TGI (BT-549 breast): 4.1 µM
GI50 (CAKI-1 renal): 2.96 µM
TGI (CAKI-1 renal): 34.5 µM
GI50 (CCRF-CEM leukemia): 1.27 µM
TGI (CCRF-CEM leukemia): 9.02 µM
GI50 (COLO 205 colon): 2.08 µM
TGI (COLO 205 colon): 4.46 µM
GI50 (DU-145 prostate): 2.96 µM
TGI (DU-145 prostate): 11.3 µM
GI50 (EKVX NSCLC): 2.06 µM
TGI (EKVX NSCLC): 5.96 µM
GI50 (HCC-2998 colon): 1.91 µM
TGI (HCC-2998 colon): 4.26 µM
GI50 (HCT-116 colon): 1.62 µM
TGI (HCT-116 colon): 3.36 µM
GI50 (HCT-15 colon): 1.45 µM
TGI (HCT-15 colon): 3.69 µM
GI50 (HL-60(TB) leukemia): 2.26 µM
TGI (HL-60(TB) leukemia): 7 µM
GI50 (HOP-62 NSCLC): 2.03 µM
TGI (HOP-62 NSCLC): 5.51 µM
GI50 (HOP-92 NSCLC): 1.88 µM
TGI (HOP-92 NSCLC): 4.38 µM
GI50 (HS 578T breast): 3.35 µM
TGI (HS 578T breast): 29.9 µM
GI50 (HT29 colon): 2.02 µM
TGI (HT29 colon): 4.53 µM
GI50 (IGROV1 ovarian): 1.92 µM
TGI (IGROV1 ovarian): 3.84 µM
GI50 (K-562 leukemia): 2.66 µM
TGI (K-562 leukemia): 10.4 µM
GI50 (KM12 colon): 3.06 µM
TGI (KM12 colon): 11.5 µM
GI50 (LOX IMVI melanoma): 1.21 µM
TGI (LOX IMVI melanoma): 2.57 µM
GI50 (M14 melanoma): 1.78 µM
TGI (M14 melanoma): 4.13 µM
GI50 (MALME-3M melanoma): 2.08 µM
TGI (MALME-3M melanoma): 4.39 µM
GI50 (MCF7 breast): 1.19 µM
TGI (MCF7 breast): 3.06 µM
GI50 (MDA-MB-231 breast): 2.17 µM
TGI (MDA-MB-231 breast): 5.01 µM
GI50 (MDA-MB-435): 2.41 µM
TGI (MDA-MB-435): 7.77 µM
GI50 (MOLT-4 leukemia): 2.35 µM
TGI (MOLT-4 leukemia): 6.83 µM
GI50 (NCI-H23 lung): 1.67 µM
TGI (NCI-H23 lung): 3.56 µM
GI50 (NCI-H460 lung): 2.84 µM
TGI (NCI-H460 lung): 12.2 µM
GI50 (NCI-H522 lung): 1.63 µM
TGI (NCI-H522 lung): 3.42 µM
GI50 (NCI/ADR-RES ovarian): 2.75 µM
TGI (NCI/ADR-RES ovarian): 9.83 µM
GI50 (OVCAR-3 ovarian): 2.18 µM
TGI (OVCAR-3 ovarian): 5.65 µM
GI50 (OVCAR-4 ovarian): 4.19 µM
TGI (OVCAR-4 ovarian): > 100 µM
GI50 (OVCAR-5 ovarian): 2.56 µM
TGI (OVCAR-5 ovarian): 6.82 µM
GI50 (OVCAR-8 ovarian): 3.04 µM
TGI (OVCAR-8 ovarian): 11.4 µM
GI50 (PC-3 prostate): 2.14 µM
TGI (PC-3 prostate): 4.35 µM
GI50 (RPMI-8226 leukemia): 2.09 µM
TGI (RPMI-8226 leukemia): 8.04 µM
GI50 (RXF 393 renal): 1.89 µM
TGI (RXF 393 renal): 3.43 µM
GI50 (SF-268 CNS): 2.16 µM
TGI (SF-268 CNS): 6.3 µM
GI50 (SF-295 CNS): 10.5 µM
TGI (SF-295 CNS): 25.6 µM
GI50 (SF-539 CNS): 1.9 µM
TGI (SF-539 CNS): 3.83 µM
GI50 (SK-MEL-2 melanoma): 2.09 µM
TGI (SK-MEL-2 melanoma): 4.71 µM
GI50 (SK-MEL-28 melanoma): 2.08 µM
TGI (SK-MEL-28 melanoma): 4.98 µM
GI50 (SK-MEL-5 melanoma): 1.99 µM
TGI (SK-MEL-5 melanoma): 4.1 µM
GI50 (SK-OV-3 ovarian): 18.9 µM
TGI (SK-OV-3 ovarian): 56.7 µM
GI50 (SN12C renal): 2.3 µM
TGI (SN12C renal): 6.03 µM
GI50 (SNB-19 CNS): 7.21 µM
TGI (SNB-19 CNS): 25.9 µM
GI50 (SNB-75 CNS): 1.83 µM
TGI (SNB-75 CNS): 8.4 µM
GI50 (SR leukemia): 1 µM
TGI (SR leukemia): > 100 µM
GI50 (SW-620 colon): 2.33 µM
TGI (SW-620 colon): 7.77 µM
GI50 (T-47D breast): 2.04 µM
TGI (T-47D breast): 4.85 µM
GI50 (TK-10 renal): 2.33 µM
TGI (TK-10 renal): 5.47 µM
GI50 (U251 CNS): 4.01 µM
TGI (U251 CNS): 14.7 µM
GI50 (UACC-257 melanoma): 2.16 µM
TGI (UACC-257 melanoma): 5.21 µM
GI50 (UACC-62 melanoma): 1.8 µM
TGI (UACC-62 melanoma): 4.42 µM
GI50 (UO-31 renal): 1.61 µM
TGI (UO-31 renal): 3.1 µM
